Measured values: ChEMBL document CHEMBL4028844, “Targeting the Receptor for Advanced Glycation Endproducts (RAGE): A Medicinal Chemistry Perspective” (J Med Chem, 2017)
Blank lines part the entries; values can stand above or below the compound they belong to.

What was measured:
[1] = target: T1, Advanced glycosylation end product-specific receptor (Homo sapiens, UniProt Q15109); test: Inhibition of […] binding to human RAGE domain V expressed in CHO cells; format: cell-based
[2] = target: T1, Advanced glycosylation end product-specific receptor; test: Displacement of [I125]amyloid beta (1 to 40) from human RAGE domain V expressed in CHO cells; format: cell-based
[3] = target: T1, Advanced glycosylation end product-specific receptor; test: Inhibition of HMGB1 binding to human RAGE domain V expressed in CHO cells; format: cell-based
[4] = target: T1, Advanced glycosylation end product-specific receptor; test: Inhibition of amyloid beta binding to human RAGE […] expressed in HEK293 cells after 10 mins by MST assay; format: cell-based
[5] = target: T1, Advanced glycosylation end product-specific receptor; test: Binding affinity to human RAGE cytoplasmic domain by tryptophan fluorescence assay
[6] = target: T1, Advanced glycosylation end product-specific receptor; test: Binding affinity to human His-tagged RAGE domain VC1 expressed in Escherichia coli by fluorescence titration method
[7] = target: Advanced glycosylation end product-specific receptor (Rattus norvegicus, UniProt Q63495); test: Binding affinity to Wistar rat His-tagged RAGE domain VC1 expressed in Escherichia coli by fluorescence titration method
Advanced glycosylation end product-specific receptor (Rattus norvegicus, UniProt Q63495), sequence (Q63495 whole entry, the tested form may be a part): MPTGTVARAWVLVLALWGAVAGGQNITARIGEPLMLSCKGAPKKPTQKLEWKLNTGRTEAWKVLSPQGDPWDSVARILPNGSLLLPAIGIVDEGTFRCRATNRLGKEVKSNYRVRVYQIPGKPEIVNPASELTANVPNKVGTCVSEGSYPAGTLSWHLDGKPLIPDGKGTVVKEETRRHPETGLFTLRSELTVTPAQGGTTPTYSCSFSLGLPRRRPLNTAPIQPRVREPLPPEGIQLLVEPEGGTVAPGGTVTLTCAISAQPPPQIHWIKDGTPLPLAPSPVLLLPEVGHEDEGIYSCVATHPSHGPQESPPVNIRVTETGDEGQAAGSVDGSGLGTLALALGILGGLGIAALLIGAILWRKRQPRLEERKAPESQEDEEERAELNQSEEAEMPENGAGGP

[8] = target: T1, Advanced glycosylation end product-specific receptor; test: Inhibition of CML binding to RAGE (unknown origin) by ELISA
[9] = target: T1, Advanced glycosylation end product-specific receptor; test: Inhibition of […] binding to RAGE (unknown origin) by ELISA
[10] = target: T1, Advanced glycosylation end product-specific receptor; test: Inhibition of amyloid beta binding to RAGE (unknown origin) by ELISA
[11] = Cytotoxicity against mouse HT22 cells assessed as cell survival at 10 uM after 18 hrs by MTT assay relative to control; format: cell-based, HT-22; conditions: read-out: Survival
[12] = target: T1, Advanced glycosylation end product-specific receptor; test: Binding affinity to human C-terminal His-tagged RAGE domain V (24 to 125 residues) expressed in Escherichia coli BL21(DE3) by tryptophan fluorescence assay
[13] = target: T1, Advanced glycosylation end product-specific receptor; test: Inhibition of amyloid beta binding to biotin-labeled human RAGE domain V at 20 uM after 60 mins by ELISA relative to cotrol

T1 sequence (Q15109 whole entry, the tested form may be a part): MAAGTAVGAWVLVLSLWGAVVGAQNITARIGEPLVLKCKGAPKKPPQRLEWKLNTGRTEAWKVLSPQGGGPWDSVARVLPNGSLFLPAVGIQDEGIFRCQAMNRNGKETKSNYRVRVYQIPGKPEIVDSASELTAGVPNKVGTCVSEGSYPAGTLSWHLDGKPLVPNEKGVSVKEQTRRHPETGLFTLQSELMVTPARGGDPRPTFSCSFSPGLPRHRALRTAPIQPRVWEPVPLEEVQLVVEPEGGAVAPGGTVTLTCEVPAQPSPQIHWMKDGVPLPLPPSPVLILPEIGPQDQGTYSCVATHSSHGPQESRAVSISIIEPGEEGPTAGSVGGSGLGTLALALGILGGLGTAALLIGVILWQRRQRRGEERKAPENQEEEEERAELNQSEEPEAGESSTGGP

Ki [1]: 0.23 µM
Ki [2]: 0.025 µM
Ki [3]: 0.148 µM
SMILES: O=C(c1ccc(Cl)cc1)N(Cc1ccccc1)C1CCCCC1

Kd [5]: 0.001 µM
SMILES: Cc1nc2ccccc2n1CC(O)Cn1c2ccccc2c2ccccc21 (stereo unspecified)

Kd [5]: 0.032 µM
SMILES: Cc1c(Cl)cccc1NC(=O)CNC(=O)c1ccccc1F

IC50 [8]: < 0.5 µM
IC50 [9]: < 0.5 µM
IC50 [10]: < 0.5 µM
SMILES: CCCCOc1cc(OCCCN(CC)CC)ccc1NC(=O)C(CC1CCN(Cc2ccccc2)CC1)NC(=O)OCC1c2ccccc2-c2ccccc21 (stereo unspecified)

IC50 [8]: < 4 µM
IC50 [9]: < 0.5 µM
IC50 [10]: < 0.5 µM
SMILES: CCCCn1c([C@@H](Cc2ccc(OCCc3ccc(Cl)cc3)cc2)NC(=O)OC(C)(C)C)nc2cc(OCCCN(CC)CC)ccc21

The remaining lines, values behind:

SMILES: O=C1CCC[C@@H]2[C@H]3CCCN4CCC[C@@H](CN12)[C@@H]34 [MATRINE]
Kd [4]: 24000 µM

SMILES: COc1cc(SC)ccc1C(=O)Nc1cccc(C)n1
Kd [5]: 0.006 µM

SMILES: O=C(O)c1cccnc1C(=O)O [QUINOLINIC ACID]
Kd [6]: 0.043 µM
Kd [7]: 0.043 µM

SMILES: CCCCOc1cc(OCCCN(CC)CC)ccc1NC(=O)c1cc(-c2ccc(Oc3ccc(F)cc3)cc2)nn1C
viability at 18 h, 10 µM [11]: 10.3%

SMILES: CCN(CC)CCOc1cccc(Nc2nc(-c3ccc(Cl)cc3)cc(-c3ccc(Cl)cc3)n2)c1
viability at 18 h, 10 µM [11]: 37.3%

SMILES: COC(=O)c1cc(O)c(O)cc1NC(=O)C1Oc2ccccc2OC1C (stereo unspecified)
Kd [5]: 0.002 µM

SMILES: CC1NC(NCCC[C@H](N)C(=O)O)=NC1=O (stereo partly specified)
Kd [12]: 0.03 to 0.04 µM

SMILES: CCN(CC)CCOc1ccc(OC)cc1NC(=O)c1nc(-c2ccc(F)cc2)cc(-c2ccc(F)cc2)n1
viability at 18 h, 10 µM [11]: 100%
inhibition [13]: > 4%
